This is an account of results in patent publication US20210253562A1, “ACYLSUFONAMIDE COMPOUNDS USEFUL AS EP3 RECEPTOR ANTAGONISTS” (Janssen Pharmaceutica NV, priority 2018, published 2021).

Experiment [1] addresses T1, CHO cells over-expressing the EP3 receptor (Homo sapiens, UniProt P43115).
T1 construct: expressed in transfected cells; host or cells: CHO cells
T1 sequence (P43115 1-390): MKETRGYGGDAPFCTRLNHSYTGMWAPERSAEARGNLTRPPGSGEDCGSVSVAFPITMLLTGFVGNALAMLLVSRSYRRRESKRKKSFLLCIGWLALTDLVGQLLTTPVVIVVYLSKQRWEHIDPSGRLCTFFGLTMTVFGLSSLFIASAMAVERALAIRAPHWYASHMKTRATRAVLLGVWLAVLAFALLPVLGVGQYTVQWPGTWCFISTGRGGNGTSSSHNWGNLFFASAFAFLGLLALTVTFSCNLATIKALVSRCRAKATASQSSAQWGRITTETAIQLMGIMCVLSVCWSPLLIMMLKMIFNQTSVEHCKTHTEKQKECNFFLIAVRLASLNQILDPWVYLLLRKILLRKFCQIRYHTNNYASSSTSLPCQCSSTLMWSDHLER
Briefly: CHO cell cAMP assay; EP3 cAMP antagonist dose response (sulprostone reference), HTRF. Type of experiment: cell-based. The conditions noted are these: sulprostone 700 nM (EC80) and FSK 2 μM (EC70); read-out: CHO_cAMP IC50. How it is done:
Biological Example 2: CHO Cell cAMP Assay
This assay monitored the cAMP generation in CHO cells over-expressing the EP3 receptor in the presence or absence of antagonist stimulated with Forskolin (FSK, CAS No. 66428-89-5) and a known EP3 Agonist (sulprostone, CAS No. 60325-46-4). For detection, a homogeneous competitive immunoassay (Time Resolved Fluorescence Energy Transfer (hTR-FRET)) was used.
Cells (6K cells per well) were plated in Poly-D-Lysine coated plates the day before the assay was to be run and were incubated at 37° C. One hour before the assay the media was removed and replaced with assay buffer (500 mL HBSS (+Ca)+2.5 mL 1M HEPES+6.66 mL 7.5% BSA) (starved at 37° C.). At the start of the assay the buffer was removed from the cells and replaced with buffer containing test compound(s). Sulprostone at an EC80 dose (700 nM) and FSK at an EC70 dose (2 μM) were added to initiate the reaction (37° C. for 30 minutes).
FSK increases cAMP production and sulprostone decreases cAMP production produced by FSK. In this assay, EP3 antagonists will increase the cAMP to the level of cAMP generated by FSK alone.
The reaction was terminated with the addition of cAMP detection reagents (labeled cAMP and labeled cAMP antibody in lysis buffer (HTRF reagent, which utilizes a cryptate-labeled anti-cAMP and d2-labeled cAMP-d2 is an HTRF acceptor fluorophore)). Approximately one hour later the plates were read on an Envision (Perkin Elmer) in HTRF mode. Well results were calculated based on a ratio of counts at 665 nm and 615 nm (data output was a calculation of the ratio: (read @665 nm/read @ 615 nm)*1000. For test compounds dosed serially, well results were converted to nM cAMP using a cAMP standard run on each plate. nM cAMP from a set of wells dosed with test compound(s) were plotted. nM cAMP was calculated for each well from a standard curve located on each plate (P1-12 and P13-24) by first calculating the slope and deriving the intercept(b):
[formula] NScAMP_s tan dard_cruve=m(nM cAMP_s tan dard_curve)+b
NSP, NSN, NSsample were converted to nM cAMP using the following equation: […]
IC50 values were determined from a […] (Hill equation) of a single 11-point compound dosing. A best-fit curve was determined by the minimum sum of squares method plotting cAMP produced vs compound concentration.
Background: cAMP levels reflect the balance of adenylyl cyclase and phosphodiesterase activity.

The target of experiment [2] is T2, EP3 membrane (EP3 receptor) (Homo sapiens, UniProt P43115).
T2 construct: purchased Millipore HTS092M
T2 sequence (P43115 1-390): T1 sequence (P43115 1-390)
Briefly: [3H]-PGE2 binding; EP3 competition binding (SPA). How it is done: Biological Example 1: [3H]-PGE2 Binding
EP3 competition binding was determined using the following materials and experimental conditions: • Beads=Perkin Elmer RPNQ0001 • [3H]PGE2=Perkin Elmer NET428025UC • 384-well plate=Perkin Elmer 6007290 • EP3 membrane=Millipore HTS092M • Membrane concentration=2 μg/well • Beads concentration=0.25 mg/well • [3H]-PGE2=2 nM; DMSO—0.1% • Binding buffer=50 mM Tris, 10 mM MgCl2, 1 mM EDTA, PH 7.4.
The reaction system was prepared by mixing 5 μl of unlabeled compound; 5 μl of diluted [3H]-PGE2; 5 μl of diluted membrane; and 15 μl of SPA beads dissolved in binding buffer (adding in the following sequence: Unlabeled compound, [3H]-PGE2, Membrane and Beads).
The binding buffer was removed from refrigeration (@ 4° C.) and allowed to warm to room temperature. Test compound (@ stock concentration of […] in DMSO) was serial dilutes (1:3) with 100% DMSO using Echo plate. Diluted test compound (30 nL) was dispensed to the 384-well assay plate (using Echo 550 Labcyte System). To each well was then added assay buffer (5 μl) and each well was spun. Beads were weighed out, dissolved in assay buffer to a concentration of 0.25 mg/15 μl. Original membrane was diluted with assay buffer to a concentration of 2 μg/5 μl. Original [3H]-PGE2 with diluted with assay buffer to a concentration of 12 nM. To each test well were then added diluted [3H]-PGE2 (5 μl), diluted membrane (5 μl), and dissolved beads (15 μl). The plate was equilibrated at room temperature on a plate shaker for 2 hours and then read with a TOPCOUNT scintillation plate reader. Results were analyzed using a Prism program with non-linear regression, one-site fit for Ki.

The IC50 is the concentration needed to halve the response being measured. In general, Ki refers to the equilibrium dissociation constant of an inhibitor or competing ligand from its target.

With `COc1ccc(Cl)cc1S(=O)(=O)NC(=O)NC/C(F)=C1\CCCc2cnn(Cc3ccc(C(F)(F)F)cc3)c21` [Compound #131, (Z)-5-chloro-N-((2-fluoro-2-(1-(4-(trifluoromethyl)benzyl)-1,4,5,6-tetrahydro-7H-indazol-7-ylidene)ethyl)carbamoyl)-2-methoxybenzenesulfonamide], the IC50 in experiment [1] came out at 349 nM. Besides, the Ki in experiment [2] is 94 nM.
Consider `O=C(NC/C(F)=C1\COCc2cnn(-c3cccc(C(F)(F)F)c3)c21)NS(=O)(=O)c1ccc(Cl)cc1` [Compound #104, (E)-4-chloro-N-((2-fluoro-2-(1-(3-(trifluoromethyl)phenyl)-1,4-dihydropyrano[4,3-c]pyrazol-7(6H)-ylidene)ethyl)carbamoyl)benzenesulfonamide], for which, in experiment [1], the IC50 is > 20000 nM. Further, the Ki in experiment [2] was > 10000 nM.
For the molecule `COc1ccc(S(=O)(=O)NC(=O)NC/C=C2\COCc3cnn(Cc4ccc(Cl)cc4Cl)c32)cc1` [Compound #62, (Z)—N-((2-(1-(2,4-dichlorobenzyl)-1,4-dihydropyrano[4,3-c]pyrazol-7(6H)-ylidene)ethyl)carbamoyl)-4-methoxybenzenesulfonamide], in experiment [1], the IC50 was found to be 245 nM. For the same molecule, affinity in experiment [2] was put at a Ki of 63 nM.
The corresponding values for `COc1ccc(S(=O)(=O)NC(=O)NC/C=C2\CCCc3cnn(Cc4ccc(Cl)cc4Cl)c32)cc1` [Compound #13, (E)-N-((2-(1-(2,4-dichlorobenzyl)-1,4,5,6-tetrahydro-7H-indazol-7-ylidene)ethyl)carbamoyl)-4-methoxybenzenesulfonamide] are 29 nM and 10 nM.
As for `O=C(NC/C(F)=C1\COCc2cnn(-c3ccc(C(F)(F)F)cc3)c21)NS(=O)(=O)c1cc(Cl)c(Cl)s1` [Compound #119, (E)-4,5-dichloro-N-((2-fluoro-2-(1-(4-(trifluoromethyl)phenyl)-1,4-dihydropyrano[4,3-c]pyrazol-7(6H)-ylidene)ethyl)carbamoyl)thiophene-2-sulfonamide], the IC50 in experiment [1] amounted to 230 nM. The affinity in experiment [2], expressed as Ki, was 43 nM.
The corresponding values for `COc1ccccc1S(=O)(=O)NC(=O)NC/C=C1\COCc2cnn(Cc3ccc(Cl)cc3Cl)c21` [Compound #58, (Z)—N-((2-(1-(2,4-dichlorobenzyl)-1,4-dihydropyrano[4,3-c]pyrazol-7(6H)-ylidene)ethyl)carbamoyl)-2-methoxybenzenesulfonamide] are 1300 nM and 110 nM.
For the molecule `O=C(NS(=O)(=O)c1ccc(Cl)cc1)OC/C=C1/c2c(cnn2Cc2ccc(Cl)cc2Cl)CCC1(F)F` [Compound #82, (Z)-2-(1-(2,4-dichlorobenzyl)-6,6-difluoro-1,4,5,6-tetrahydro-7H-indazol-7-ylidene)ethyl ((4-chlorophenyl)sulfonyl)carbamate], the IC50 in experiment [1] was found to be 2600 nM. The Ki in experiment [2] was 106 nM.
The corresponding values for `O=C(NC/C=C1\CCCc2c(C(F)F)nn(Cc3ccc(Cl)cc3Cl)c21)NS(=O)(=O)c1ccc(Cl)cc1` [Compound #47, (E)-4-chloro-N-((2-(1-(2,4-dichlorobenzyl)-3-(difluoromethyl)-1,4,5,6-tetrahydro-7H-indazol-7-ylidene)ethyl)carbamoyl)benzenesulfonamide] are 120 nM and 65 nM.
The corresponding values for `O=C(NC/C(F)=C1/CCCc2cnn(-c3ccc4ccccc4c3)c21)NS(=O)(=O)c1ccc2c(c1)OCCO2` [Compound #110, (E)-N-((2-fluoro-2-(1-(naphthalen-2-yl)-1,4,5,6-tetrahydro-7H-indazol-7-ylidene)ethyl)carbamoyl)-2,3-dihydrobenzo[b][1,4]dioxine-6-sulfonamide] are > 20000 nM and > 10000 nM.
The corresponding values for `CN(C/C=C1\COCc2cnn(Cc3ccc(Cl)cc3Cl)c21)C(=O)NS(=O)(=O)c1cc(Cl)c(Cl)s1` [Compound #55, (Z)-4,5-dichloro-N-((2-(1-(2,4-dichlorobenzyl)-1,4-dihydropyrano[4,3-c]pyrazol-7(6H)-ylidene)ethyl)(methyl)carbamoyl)thiophene-2-sulfonamide] are 11 nM and 3 nM.
For `O=C(CC/C=C1\CCCc2cnn(-c3cccc(-c4ccc(Cl)cc4Cl)c3)c21)NS(=O)(=O)c1cc(Cl)c(Cl)s1` [Compound #53, (E)-4-(1-(2′,4′-dichloro-[1,1′-biphenyl]-3-yl)-1,4,5,6-tetrahydro-7H-indazol-7-ylidene)-N-((4,5-dichlorothiophen-2-yl)sulfonyl)butanamide], the IC50 in experiment [1] is 18 nM. Besides, the affinity in experiment [2], expressed as Ki, was 4 nM.
Regarding `O=C(C/C=C1\CCCc2cnn(Cc3ccc(Cl)cc3Cl)c21)NS(=O)(=O)c1ccc(Cl)s1` [Compound #17], in experiment [1], the IC50 came out at 74 nM. In addition, affinity in experiment [2] was put at a Ki of 19 nM.
In the case of `COc1ccc(Cl)c(S(=O)(=O)NC(=O)NC/C=C2\COCc3cnn(Cc4ccc(Cl)cc4Cl)c32)c1` [Compound #65, (Z)-2-chloro-N-((2-(1-(2,4-dichlorobenzyl)-1,4-dihydropyrano[4,3-c]pyrazol-7(6H)-ylidene)ethyl)carbamoyl)-5-methoxybenzenesulfonamide], in experiment [1], the IC50 worked out at 44 nM. Moreover, the affinity in experiment [2] corresponds to a Ki of 27 nM.
For `Cc1nn(C)cc1S(=O)(=O)NC(=O)NC/C=C1\CCCc2cnn(Cc3ccc(Cl)cc3Cl)c21` [Compound #184, (E)-N-((2-(1-(2,4-dichlorobenzyl)-1,4,5,6-tetrahydro-7H-indazol-7-ylidene)ethyl)carbamoyl)-1,3-dimethyl-1H-pyrazole-4-sulfonamide], the Ki in experiment [2] is 14 nM.
Still for that read-out and setting: with `Cc1nn(C)cc1S(=O)(=O)NC(=O)NC/C(F)=C1\CCCc2cnn(Cc3ccc(Cl)cc3Cl)c21` [Compound #180, (Z)—N-((2-(1-(2,4-dichlorobenzyl)-1,4,5,6-tetrahydro-7H-indazol-7-ylidene)-2-fluoroethyl)carbamoyl)-1,3-dimethyl-1H-pyrazole-4-sulfonamide] the figure was 164 nM; with `Cn1nc2c(c1Cc1ccc(Cl)cc1Cl)/C(=C(\F)CNC(=O)NS(=O)(=O)c1cc(Cl)c(Cl)s1)COC2` [Compound #189, (E)-4,5-dichloro-N-((2-(3-(2,4-dichlorobenzyl)-2-methyl-2,7-dihydropyrano[3,4-c]pyrazol-4(5H)-ylidene)-2-fluoroethyl)carbamoyl)thiophene-2-sulfonamide], 1 nM.
Same read-out and setting: with `Cc1cc(S(=O)(=O)NC(=O)NC/C=C2\CCCc3cnn(-c4ccc(Cl)cc4Cl)c32)sc1Cl` [Compound #196, (E)-5-chloro-N-((2-(1-(2,4-dichlorophenyl)-1,4,5,6-tetrahydro-7H-indazol-7-ylidene)ethyl)carbamoyl)-4-methylthiophene-2-sulfonamide] the figure was 1 nM.
